A short description of data set [1]: DRUGMATRIX: Calcium Channel Type L, Benzothiazepine radioligand binding (ligand: [3H] Diltiazem). Format: cell membranes, Rattus norvegicus, Wistar, Brain, Membrane. Conditions: Not Active = under 50% inhibition at 10 µM.
A further data set has as its target T1, Cytochrome P450 2A6 (Homo sapiens, UniProt P11509). Note: in other assays of this panel Not Active means under 50% inhibition at 10 µM.
T1 sequence (P11509 whole entry): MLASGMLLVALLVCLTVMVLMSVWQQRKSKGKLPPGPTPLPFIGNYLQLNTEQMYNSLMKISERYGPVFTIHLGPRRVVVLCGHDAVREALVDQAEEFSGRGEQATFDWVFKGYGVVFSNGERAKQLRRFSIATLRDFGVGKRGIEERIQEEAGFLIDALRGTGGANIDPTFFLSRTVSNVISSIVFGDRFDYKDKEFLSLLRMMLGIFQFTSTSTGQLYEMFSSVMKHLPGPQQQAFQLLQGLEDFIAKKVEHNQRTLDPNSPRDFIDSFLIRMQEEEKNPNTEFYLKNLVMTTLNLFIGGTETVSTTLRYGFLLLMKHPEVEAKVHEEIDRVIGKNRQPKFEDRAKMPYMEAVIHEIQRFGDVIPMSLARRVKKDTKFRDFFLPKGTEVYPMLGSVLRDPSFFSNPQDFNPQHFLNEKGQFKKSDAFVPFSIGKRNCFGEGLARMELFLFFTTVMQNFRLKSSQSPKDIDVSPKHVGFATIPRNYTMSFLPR
Conditions: bti-tn-5b1-4.

The target of data set [2] is Sodium-dependent noradrenaline transporter (Homo sapiens, UniProt P23975). The data set can be described thus: DRUGMATRIX: Norepinephrine Transporter radioligand binding (ligand: [125I] RTI-55). Conditions: mdck, Not Active = under 50% inhibition at 10 µM. Format: cell membranes, MDCK, Membrane.
Data set [3] has as its target T2, Amine oxidase [flavin-containing] A (Homo sapiens, UniProt P21397).
T2 sequence (P21397 whole entry): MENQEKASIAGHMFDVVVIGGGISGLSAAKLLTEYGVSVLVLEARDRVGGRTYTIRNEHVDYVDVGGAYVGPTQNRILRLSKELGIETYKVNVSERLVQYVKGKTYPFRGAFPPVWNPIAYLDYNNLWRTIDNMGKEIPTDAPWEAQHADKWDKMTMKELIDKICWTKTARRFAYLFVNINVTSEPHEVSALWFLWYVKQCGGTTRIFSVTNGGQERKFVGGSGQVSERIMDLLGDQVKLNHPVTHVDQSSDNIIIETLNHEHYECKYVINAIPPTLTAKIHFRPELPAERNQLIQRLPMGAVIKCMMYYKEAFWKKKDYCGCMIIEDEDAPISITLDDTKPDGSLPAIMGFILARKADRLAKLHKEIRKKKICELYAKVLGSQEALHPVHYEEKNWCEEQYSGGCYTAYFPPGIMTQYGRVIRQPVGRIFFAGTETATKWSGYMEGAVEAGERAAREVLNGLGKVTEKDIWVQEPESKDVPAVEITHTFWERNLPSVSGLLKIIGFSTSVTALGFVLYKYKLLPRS
Nature of the data set: DRUGMATRIX: Monoamine Oxidase MAO-A enzyme inhibition (substrate: Kynuramine). The arrangement: species or system BTI-TN-5B1-4. The conditions noted are these: bti-tn-5b1-4; Not Active = under 50% inhibition at 10 µM.

For the next data set, the target named is Acetylcholinesterase (Homo sapiens, UniProt P22303). Nature of the data set: DRUGMATRIX: Acetylcholinesterase enzyme inhibition (substrate: acetylthiocholine). The class given is cell-based, HEK293. The conditions noted are these: hek293; Not Active = under 50% inhibition at 10 µM.
Chain of Acetylcholinesterase (P22303 whole entry): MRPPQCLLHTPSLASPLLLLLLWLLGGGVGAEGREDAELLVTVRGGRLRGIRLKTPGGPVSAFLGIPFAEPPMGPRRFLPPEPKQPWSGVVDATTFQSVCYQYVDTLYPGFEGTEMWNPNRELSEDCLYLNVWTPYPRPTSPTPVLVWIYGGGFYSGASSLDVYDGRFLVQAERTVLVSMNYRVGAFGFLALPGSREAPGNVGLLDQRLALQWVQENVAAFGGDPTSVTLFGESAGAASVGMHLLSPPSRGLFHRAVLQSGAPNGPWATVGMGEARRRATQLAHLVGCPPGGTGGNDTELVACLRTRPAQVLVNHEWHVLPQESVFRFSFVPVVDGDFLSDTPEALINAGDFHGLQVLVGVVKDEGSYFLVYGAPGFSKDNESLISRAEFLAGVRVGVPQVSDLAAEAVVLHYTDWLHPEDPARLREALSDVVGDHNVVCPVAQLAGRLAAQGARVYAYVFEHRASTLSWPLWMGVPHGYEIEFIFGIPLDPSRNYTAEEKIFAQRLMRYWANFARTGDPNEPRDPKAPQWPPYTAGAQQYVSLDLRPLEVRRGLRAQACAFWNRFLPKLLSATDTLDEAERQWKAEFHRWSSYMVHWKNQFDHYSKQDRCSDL

Chain of Sodium-dependent noradrenaline transporter (P23975 whole entry): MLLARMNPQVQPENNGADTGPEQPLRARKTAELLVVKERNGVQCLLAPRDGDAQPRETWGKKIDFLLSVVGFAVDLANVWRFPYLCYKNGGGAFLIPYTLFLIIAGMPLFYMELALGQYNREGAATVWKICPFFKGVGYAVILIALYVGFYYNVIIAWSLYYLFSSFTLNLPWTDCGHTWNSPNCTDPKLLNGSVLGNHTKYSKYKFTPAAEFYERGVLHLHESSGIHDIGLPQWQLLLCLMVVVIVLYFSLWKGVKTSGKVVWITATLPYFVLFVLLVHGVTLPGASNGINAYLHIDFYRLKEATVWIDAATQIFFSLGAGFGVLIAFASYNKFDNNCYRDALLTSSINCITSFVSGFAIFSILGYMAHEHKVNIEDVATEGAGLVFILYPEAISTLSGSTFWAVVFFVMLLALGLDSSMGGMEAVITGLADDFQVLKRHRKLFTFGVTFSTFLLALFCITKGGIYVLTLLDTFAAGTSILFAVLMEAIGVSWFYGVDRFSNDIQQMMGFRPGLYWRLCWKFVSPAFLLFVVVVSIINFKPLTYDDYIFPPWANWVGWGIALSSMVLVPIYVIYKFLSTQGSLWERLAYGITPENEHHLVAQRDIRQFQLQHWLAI

For the compound `COc1ncnc(NS(=O)(=O)c2ccc(N)cc2)c1OC` [SULFADOXINE], the IC50 entry (in data set [1]; against Cytochrome P450 2A6; in data set [2]; in data set [3]; against Acetylcholinesterase) was “Not Active” in each case. Also, the inhibitory constant (Ki) result (in data set [1]; at Cytochrome P450 2A6) was “Not Active” throughout.
As for `Nc1ccc(S(=O)(=O)Nc2nccs2)cc1` [SULFATHIAZOLE], the IC50 result (in data set [1]; against Cytochrome P450 2A6; in data set [2]; in data set [3]; at Acetylcholinesterase) was “Not Active” in each case. The Ki entry (in data set [1]; on Cytochrome P450 2A6) was “Not Active” in each case.
For `C[C@]12CC[C@H]3[C@@H](CCC4=CC(=O)CC[C@@]43C)[C@@H]1CC[C@@H]2O` [TESTOSTERONE], the IC50 result (in data set [1]; at Cytochrome P450 2A6; in data set [2]; in data set [3]; against Acetylcholinesterase) was “Not Active” in each case. Besides, the inhibition constant Ki result (in data set [1]; at Cytochrome P450 2A6) was “Not Active” in each case.
For `CC(C)(C)NC[C@H](O)COc1nsnc1N1CCOCC1` [TIMOLOL], the half-maximal inhibitory concentration (IC50) entry (in data set [1]; against Cytochrome P450 2A6; in data set [2]; in data set [3]; at Acetylcholinesterase) was “Not Active” each time. Moreover, the Ki result (in data set [1]; at Cytochrome P450 2A6) was “Not Active” throughout.
With `C[C@@H]1C[C@H]2[C@@H]3CCC4=CC(=O)C=C[C@]4(C)C3=CC[C@]2(C)[C@H]1C(=O)CN1CCN(c2cc(N3CCCC3)nc(N3CCCC3)n2)CC1` [TIRILAZAD], the IC50 in data set [1] (read-out: IC50) is 2690 nM; against Cytochrome P450 2A6, “Not Active”; in data set [2] it was “Not Active”; in data set [3], “Not Active”; against Acetylcholinesterase, “Not Active”. For the same compound, the Ki in data set [1] (read-out: Ki) is 2400 nM; on Cytochrome P450 2A6, “Not Active”.
Turning to `NC[C@H]1O[C@H](O[C@H]2[C@H](O)[C@@H](O[C@H]3O[C@H](CO)[C@@H](O)[C@H](N)[C@H]3O)[C@H](N)C[C@@H]2N)[C@H](N)C[C@@H]1O` [TOBRAMYCIN], the IC50 entry (in data set [1]; against Cytochrome P450 2A6; in data set [2]; in data set [3]; on Acetylcholinesterase) was “Not Active” throughout. The Ki result (in data set [1]; on Cytochrome P450 2A6) was “Not Active” in each case.
Regarding `O=C(O)C(Cl)(Cl)Cl` [TRICHLOROACETIC ACID], the half-inhibitory concentration (IC50) entry (in data set [1]; on Cytochrome P450 2A6; in data set [2]; in data set [3]; against Acetylcholinesterase) was “Not Active” each time. For the same compound, the Ki entry (in data set [1]; on Cytochrome P450 2A6) was “Not Active” each time.
Take `CC(=O)O[C@H]1C[C@@H]2CC[C@@H]3[C@H](CC[C@@]4(C)[C@H]3C[C@H]([N+]3(C)CCCCC3)[C@@H]4OC(C)=O)[C@@]2(C)C[C@@H]1N1CCCCC1.[Br-]` [VECURONIUM BROMIDE]: the half-inhibitory concentration (IC50) result (in data set [1]; against Cytochrome P450 2A6; in data set [2]; in data set [3]; against Acetylcholinesterase) was “Not Active” throughout. In addition, the inhibition constant (Ki) result (in data set [1]; at Cytochrome P450 2A6) was “Not Active” in each case.
As to `COc1cc(C(=O)NS(=O)(=O)c2ccccc2C)ccc1Cc1cn(C)c2ccc(NC(=O)OC3CCCC3)cc12` [ZAFIRLUKAST], the IC50 result (in data set [1]; against Cytochrome P450 2A6; in data set [2]; in data set [3]; against Acetylcholinesterase) was “Not Active” in each case. The inhibition constant Ki entry (in data set [1]; on Cytochrome P450 2A6) was “Not Active” each time.
With `Cc1cn([C@H]2C[C@H](N=[N+]=[N-])[C@@H](CO)O2)c(=O)[nH]c1=O` [ZIDOVUDINE], the half-inhibitory concentration (IC50) entry (in data set [1]; against Cytochrome P450 2A6; in data set [2]; in data set [3]; on Acetylcholinesterase) was “Not Active” throughout. For the same compound, the inhibition constant (Ki) result (in data set [1]; at Cytochrome P450 2A6) was “Not Active” throughout.
STANNOUS FLUORIDE: the IC50 entry (in data set [1]; on Cytochrome P450 2A6; in data set [2]; in data set [3]; at Acetylcholinesterase) was “Not Active” each time. Moreover, the Ki result (in data set [1]; at Cytochrome P450 2A6; in data set [2]; in data set [3]; on Acetylcholinesterase) was “Not Active” each time.
Take THIMEROSAL: the half-inhibitory concentration (IC50) entry in data set [1] is “Not Active”; against Cytochrome P450 2A6 it was “Not Active”; in data set [2] (read-out: IC50), 931 nM; in data set [3], “Not Active”; against Acetylcholinesterase it was “Not Active”. The inhibition constant Ki result in data set [1] was “Not Active”; at Cytochrome P450 2A6, “Not Active”; in data set [2] (read-out: Ki) it was 923 nM; in data set [3] it was “Not Active”; on Acetylcholinesterase it was “Not Active”.

For the origin of these results see ChEMBL document CHEMBL1909046, “DrugMatrix in vitro pharmacology data”.
